Laboratory results taken from patent US10221163B2 (priority 2015, dated 2019).
Where a name gives a salt, the structure may show the parent alone. Read-outs that look alike come from different tables or passages of the source.

Experiments:
[1] = test system: Pseudomonas aeruginosa efflux+ (MB9798), IMP-1; assay type: cell-based; set-up: Concentration of metallo-β-lactamase inhibitor which restores susceptibility of efflux + (MB9798) strain to imipenem: unit not given here; conditions: C, D serine β-lactamase inhibitor closely related to relebactam; for P. aeruginosa expressing IMP-1, efflux + (MB9798) MITC95: concentration restoring susceptibility to imipenem at 2 μg/mL in the presence of a class A
Procedure, shortened: (§1)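 P. aeruginosa PAO1-derived IMP-1 strains, efflux+ MB9798 and efflux− MB9799, tested by standard microbroth MIC with imipenem and/or ceftazidime fixed, usually at CLSI breakpoint, plus fixed class A/C β-lactamase inhibitor against AmpC. Inhibitor titrated; concentration restoring susceptibility recorded; MB9798/MB9799 fold difference indicates efflux.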

[2] = molecular target: VIM-1 (Pseudomonas aeruginosa (strain ATCC 15692 / DSM 22644 / CIP 104116 / JCM 14847 / LMG 12228 / 1C / PRS 101 / PAO1), UniProt A0A0F7KYQ8); experiment: biochemical; conditions: CCF2-FA substrate, 30 pM enzyme, 2 hours at 25° C.
Procedure, shortened: (§2)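 Class B activity is measured in the presence of compound by fluorescence with CCF2-FA after a 2-hour incubation at 25° C. IC50 is taken from a 4-parameter fit of semi-logarithmic dose-response data.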

[3] = test system: Pseudomonas aeruginosa efflux− (MB9799), IMP-1; assay type: cell-based; conditions: C, D serine β-lactamase inhibitor closely related to relebactam; for P. aeruginosa expressing IMP-1, efflux − (MB9799) MITC95: concentration restoring susceptibility to imipenem at 2 μg/mL in the presence of a class A
Procedure, shortened: as §1

[4] = test system: Serratia marcescens expressing IMP-1 (CL5741); assay type: cell-based; conditions: for Serratia marcescens MITC95: IMP-1 strain CL5741, with imipenem 1 μg/ml, 95% inhibition of growth; for Serratia marcescens expressing IMP-1 (CL5741) MITC95: with imipenem 1 μg/ml, 95% inhibition of bacterial growth
Procedure, shortened: (§3)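 Imipenem 1 μg/ml + inhibitor; MBL-expressing clinical strains in 1.1×CAMHB, inoculum from saline suspension diluted 1:100; 35° C, 22–24 h; absorbance read-out.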

[5] = test system: Escherichia coli expressing NDM-1 (CLB30005, CLB30016); assay type: cell-based; conditions: with imipenem 1 μg/ml; for Escherichia coli MITC95: NDM-1 strain, 95% inhibition of growth; for Escherichia coli expressing NDM-1 (CLB30016) MITC95: 95% inhibition of bacterial growth
Procedure, shortened: as §3

[6] = test system: Klebsiella pneumoniae expressing VIM-1 (IHMA599644); assay type: cell-based; conditions: for Klebsiella pneumoniae MITC95: VIM-1 strain IHMA599644, with imipenem 1 μg/ml, 95% inhibition of growth; for Klebsiella pneumoniae expressing VIM-1 (IHMA599644) MITC95: with imipenem 1 μg/ml, 95% inhibition of bacterial growth
Procedure, shortened: as §3

[7] = test system: Pseudomonas aeruginosa MB9798 vs MB9799
Excerpt: The strain background was Pseudomonas aeruginosa PAO1.
The strain set was then used as a pair to determine the effect of metallo-β-lactamase inhibitors of Formula I on the MIC of imipenem and/or ceftazidime. A fixed concentration of antibiotic was included in standard microbroth MIC tests, usually at the CLSI (Clinical and Laboratory Standards Institute) breakpoint concentration. A fixed amount of a class A/C beta-lactamase inhibitor was also included to inhibit the resident Pseudomonas AmpC enzyme. A serial titration of the metallo-β-lactamase inhibitor was included and the concentration of metallo-β-lactamase inhibitor which restores susceptibility of the strain to the included antibiotic was recorded. That concentration of metallo-β-lactamase inhibitor was then compared between the two strains to determine the fold difference between the efflux+ (MB9798) and efflux− (MB9799) strains. This was taken as an indication of the extent to which the MBLi is subject to efflux.

[8] = molecular target: IMP-1 (Serratia marcescens, UniProt P52699); experiment: biochemical; assay type: biochemical; conditions: CCF2-FA substrate, 2 pM enzyme, 2 hours at 25° C.
Sequence of IMP-1 (P52699 whole entry, looked up, species assumed): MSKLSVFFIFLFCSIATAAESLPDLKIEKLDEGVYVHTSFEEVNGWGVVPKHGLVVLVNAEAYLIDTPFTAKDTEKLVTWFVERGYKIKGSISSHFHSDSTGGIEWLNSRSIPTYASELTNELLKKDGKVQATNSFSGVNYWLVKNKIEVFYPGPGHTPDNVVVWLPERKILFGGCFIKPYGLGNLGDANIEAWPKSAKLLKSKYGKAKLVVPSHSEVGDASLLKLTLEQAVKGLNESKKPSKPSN
Procedure, shortened: as §2

[9] = molecular target: NDM-1 (Klebsiella pneumoniae, UniProt C7C422); experiment: biochemical; assay type: biochemical; conditions: fluorescence assay, CCF2-FA substrate, 1 pM enzyme, 2 hours at 25° C., read-out: NDM-1 IC50
Sequence of NDM-1 (C7C422 whole entry, looked up, species assumed): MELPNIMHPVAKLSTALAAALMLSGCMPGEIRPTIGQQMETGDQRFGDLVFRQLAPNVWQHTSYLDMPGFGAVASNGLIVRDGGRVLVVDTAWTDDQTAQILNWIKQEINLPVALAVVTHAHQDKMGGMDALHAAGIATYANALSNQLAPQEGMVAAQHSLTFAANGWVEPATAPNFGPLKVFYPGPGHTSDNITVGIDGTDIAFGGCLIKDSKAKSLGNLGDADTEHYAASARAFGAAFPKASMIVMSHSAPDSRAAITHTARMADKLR
Procedure, shortened: as §2

[10] = ratio MITC95 PA_9798/MITC95 PA_9799
[11] = fluorescence assay, read-out: IMP-1 IC50
[12] = fluorescence assay, read-out: VIM-1 IC50

Nc1nc2c(-c3ccc(S(=O)(=O)NC4CNC[C@H]4N)c(S(N)(=O)=O)c3-c3nn[nH]n3)cccc2[nH]1 (stereo in doubt) [Example 322, 4-(2-Amino-1H-benzo[d]imidazol-4-yl)-N1-((3S,4R)-4-aminopyrrolidin-3-yl)-3-(2H-tetrazol-5-yl)benzene-1,2-disulfonamide]
P. aeruginosa expressing IMP-1, efflux + (MB9798) MITC95 [1]: 0.651 µM | IC50 ([2]; VIM-1 IC50, fluorescence assay): 0.182 nM | P. aeruginosa expressing IMP-1, efflux − (MB9799) MITC95 [3]: 0.7813 µM | Serratia marcescens MITC95 [4]: 1.042 µM | Escherichia coli MITC95 [5]: 0.5208 µM | Klebsiella pneumoniae MITC95 [6]: 1.302 µM | Efflux ratio [7, 10]: 0.83 | IC50 [8, 11]: 0.738 nM | IC50 [9]: 0.0536 nM

NCCNS(=O)(=O)c1ccc(-c2cccc(C(=O)NCC(O)CN)c2)c(-c2nn[nH]n2)c1S(N)(=O)=O (stereo in doubt) [Example 347, (S)—N-(3-amino-2-hydroxypropyl)-4′-(N-(2-aminoethyl)sulfamoyl)-3′-sulfamoyl-2′-(2H-tetrazol-5-yl)[1,1′-biphenyl]-3-carboxamide]
P. aeruginosa expressing IMP-1, efflux + (MB9798) MITC95 [1]: 1.563 µM | IC50 ([2]; VIM-1 IC50, fluorescence assay): 0.536 nM | P. aeruginosa expressing IMP-1, efflux − (MB9799) MITC95 [3]: 0.7813 µM | Serratia marcescens MITC95 [4]: 1.563 µM | Escherichia coli MITC95 [5]: 1.563 µM | Klebsiella pneumoniae MITC95 [6]: 1.563 µM | Efflux ratio [7, 10]: 2.00 | IC50 [8, 11]: 3.97 nM | IC50 [9]: 2.04 nM

NCC1(NS(=O)(=O)c2ccc(-c3ccc(N)nc3)c(-c3nn[nH]n3)c2S(N)(=O)=O)CCNC1 (stereo in doubt) [Example 486, (R)-N1-(3-(aminomethyl)pyrrolidin-3-yl)-4-(6-aminopyridin-3-yl)-3-(2H-tetrazol-5-yl)benzene-1,2-disulfonamide dihydrochloride]
Concentration of metallo-β-lactamase inhibitor which restores susceptibility of efflux + (MB9798) strain to imipenem ([1]; efflux+ MB9798, imipenem at 2 μg/mL, in the presence of a class A): 1.563 | IC50 ([2]; VIM-1 IC50, fluorescence assay): 0.321 nM | Concentration of metallo-β-lactamase inhibitor which restores susceptibility of efflux − (MB9799) strain to imipenem ([3]; efflux− MB9799, imipenem at 2 μg/mL, in the presence of a class A, dihydrochloride): 0.7813 | Serratia marcescens MITC95 [4]: 0.7813 µM | Escherichia coli MITC95 ([5]; dihydrochloride): 0.7813 µM | Klebsiella pneumoniae MITC95 [6]: 1.563 µM | Efflux ratio ([7]; fold difference between efflux+ (MB9798) and efflux− (MB9799) strains, imipenem at 2 μg/mL, dihydrochloride): 2.00 | IC50 ([8]; fluorescence assay, dihydrochloride, read-out: IMP-1 IC50): 0.422 nM | IC50 ([9]; dihydrochloride): 0.176 nM

Nc1nc2cccc(-c3ccc(S(N)(=O)=O)c(S(N)(=O)=O)c3-c3nn[nH]n3)c2[nH]1 [Example 1, 4-(2-amino-3H-benzo[d]imidazol-4-yl)-3-(2H-tetrazol-5-yl)benzene-1,2-disulfonamide]
P. aeruginosa expressing IMP-1, efflux + (MB9798) MITC95 [1]: 0.5573 µM | IC50 [2, 12]: 0.264 nM | P. aeruginosa expressing IMP-1, efflux − (MB9799) MITC95 [3]: 0.8542 µM | Serratia marcescens expressing IMP-1 (CL5741) MITC95 [4]: 0.8542 µM | Escherichia coli expressing NDM-1 (CLB30016) MITC95 [5]: 0.5156 µM | Klebsiella pneumoniae expressing VIM-1 (IHMA599644) MITC95 [6]: 1.448 µM | Efflux ratio [7, 10]: 0.65 | IC50 [8, 11]: 0.581 nM | IC50 [9]: 0.0853 nM

Nc1ccc2cccc(-c3ccc(S(N)(=O)=O)c(S(N)(=O)=O)c3-c3nn[nH]n3)c2n1 [Example 2, 4-(2-aminoquinolin-8-yl)-3-(2H-tetrazol-5-yl)benzene-1,2-disulfonamide]
P. aeruginosa expressing IMP-1, efflux + (MB9798) MITC95 [1]: 0.7813 µM | IC50 [2, 12]: 0.462 nM | P. aeruginosa expressing IMP-1, efflux − (MB9799) MITC95 [3]: 0.7813 µM | Serratia marcescens expressing IMP-1 (CL5741) MITC95 [4]: 0.7813 µM | Escherichia coli expressing NDM-1 (CLB30016) MITC95 [5]: 0.7813 µM | Klebsiella pneumoniae expressing VIM-1 (IHMA599644) MITC95 [6]: 1.563 µM | Efflux ratio [7, 10]: 1.00 | IC50 [8, 11]: 0.279 nM | IC50 [9]: 0.163 nM

NS(=O)(=O)c1ccc(-c2cccc3cn[nH]c23)c(-c2nn[nH]n2)c1S(N)(=O)=O [Example 3, 4-(1H-indazol-7-yl)-3-(2H-tetrazol-5-yl)benzene-1,2-disulfonamide]
P. aeruginosa expressing IMP-1, efflux + (MB9798) MITC95 [1]: 3.125 µM | IC50 [2, 12]: 0.258 nM | P. aeruginosa expressing IMP-1, efflux − (MB9799) MITC95 [3]: 1.563 µM | Serratia marcescens expressing IMP-1 (CL5741) MITC95 [4]: 1.563 µM | Escherichia coli expressing NDM-1 (CLB30016) MITC95 [5]: 3.125 µM | Klebsiella pneumoniae expressing VIM-1 (IHMA599644) MITC95 [6]: 6.25 µM | Efflux ratio [7, 10]: 2.00 | IC50 [8, 11]: 0.233 nM | IC50 [9]: 0.151 nM

Nc1nc2c(-c3ccc(S(N)(=O)=O)c(S(N)(=O)=O)c3-c3nn[nH]n3)cccc2o1 [Example 4, 4-(2-aminobenzo[d]oxazol-4-yl)-3-(2H-tetrazol-5-yl)benzene-1,2-disulfonamide]
P. aeruginosa expressing IMP-1, efflux + (MB9798) MITC95 [1]: 1.563 µM | IC50 [2, 12]: 0.237 nM | P. aeruginosa expressing IMP-1, efflux − (MB9799) MITC95 [3]: 1.563 µM | Serratia marcescens expressing IMP-1 (CL5741) MITC95 [4]: 1.563 µM | Escherichia coli expressing NDM-1 (CLB30016) MITC95 [5]: 3.125 µM | Klebsiella pneumoniae expressing VIM-1 (IHMA599644) MITC95 [6]: 3.125 µM | Efflux ratio [7, 10]: 1.00 | IC50 [8, 11]: 0.354 nM | IC50 [9]: 0.136 nM

Cn1c(N)nc2c(-c3ccc(S(N)(=O)=O)c(S(N)(=O)=O)c3-c3nn[nH]n3)cccc21 [Example 5, 4-(2-amino-1-methyl-1H-benzo[d]imidazol-4-yl)-3-(2H-tetrazol-5-yl)benzene-1,2-disulfonamide]
P. aeruginosa expressing IMP-1, efflux + (MB9798) MITC95 [1]: 1.781 µM | IC50 [2, 12]: 0.146 nM | P. aeruginosa expressing IMP-1, efflux − (MB9799) MITC95 [3]: 0.8906 µM | Serratia marcescens expressing IMP-1 (CL5741) MITC95 [4]: 0.8906 µM | Escherichia coli expressing NDM-1 (CLB30016) MITC95 [5]: 0.25 µM | Klebsiella pneumoniae expressing VIM-1 (IHMA599644) MITC95 [6]: 1.781 µM | Efflux ratio [7, 10]: 2.00 | IC50 [8, 11]: 0.346 nM | IC50 [9]: 0.197 nM

Cc1ccc(-c2ccc(S(N)(=O)=O)c(S(N)(=O)=O)c2-c2nn[nH]n2)c2nc(N)sc12 [Example 6, 4-(2-amino-7-methylbenzo[d]thiazol-4-yl)-3-(2H-tetrazol-5-yl)benzene-1,2-disulfonamide]
P. aeruginosa expressing IMP-1, efflux + (MB9798) MITC95 [1]: 1.563 µM | IC50 [2, 12]: 0.0915 nM | P. aeruginosa expressing IMP-1, efflux − (MB9799) MITC95 [3]: 1.563 µM | Serratia marcescens expressing IMP-1 (CL5741) MITC95 [4]: 1.563 µM | Escherichia coli expressing NDM-1 (CLB30016) MITC95 [5]: 6.25 µM | Klebsiella pneumoniae expressing VIM-1 (IHMA599644) MITC95 [6]: 6.25 µM | Efflux ratio [7, 10]: 1.00 | IC50 [8, 11]: 0.0648 nM | IC50 [9]: 0.0269 nM

CNS(=O)(=O)c1ccc(-c2cccc3cn[nH]c23)c(-c2nn[nH]n2)c1S(N)(=O)=O [Example 7, 4-(1H-indazol-7-yl)-N1-methyl-3-(2H-tetrazol-5-yl)benzene-1,2-disulfonamide]
P. aeruginosa expressing IMP-1, efflux + (MB9798) MITC95 [1]: 25 µM | IC50 [2, 12]: 0.108 nM | P. aeruginosa expressing IMP-1, efflux − (MB9799) MITC95 [3]: 1.563 µM | Serratia marcescens expressing IMP-1 (CL5741) MITC95 [4]: 3.125 µM | Escherichia coli expressing NDM-1 (CLB30016) MITC95 [5]: 6.25 µM | Klebsiella pneumoniae expressing VIM-1 (IHMA599644) MITC95 [6]: 6.25 µM | Efflux ratio [7, 10]: 15.99 | IC50 ([8]; IMP-1 IC50, fluorescence assay): 0.214 nM | IC50 [9]: 0.101 nM

NS(=O)(=O)c1ccc(-c2cccc3[nH]c(C(=O)O)nc23)c(-c2nn[nH]n2)c1S(N)(=O)=O [Example 8, 4-(3,4-disulfamoyl-2-(2H-tetrazol-5-yl)phenyl)-1H-benzo[d]imidazole-2-carboxylic acid]
P. aeruginosa expressing IMP-1, efflux + (MB9798) MITC95 [1]: 1.563 µM | IC50 [2, 12]: 0.287 nM | P. aeruginosa expressing IMP-1, efflux − (MB9799) MITC95 [3]: 1.563 µM | Serratia marcescens expressing IMP-1 (CL5741) MITC95 [4]: 3.125 µM | Escherichia coli expressing NDM-1 (CLB30016) MITC95 [5]: 1.563 µM | Klebsiella pneumoniae expressing VIM-1 (IHMA599644) MITC95 [6]: 6.25 µM | Efflux ratio [7, 10]: 1.00 | IC50 [8, 11]: 0.361 nM | IC50 [9]: 0.123 nM
